Data set [1] deals with T1, Solute carrier organic anion transporter family member 1A2 (Homo sapiens, UniProt P46721).
T1 sequence (P46721 whole entry): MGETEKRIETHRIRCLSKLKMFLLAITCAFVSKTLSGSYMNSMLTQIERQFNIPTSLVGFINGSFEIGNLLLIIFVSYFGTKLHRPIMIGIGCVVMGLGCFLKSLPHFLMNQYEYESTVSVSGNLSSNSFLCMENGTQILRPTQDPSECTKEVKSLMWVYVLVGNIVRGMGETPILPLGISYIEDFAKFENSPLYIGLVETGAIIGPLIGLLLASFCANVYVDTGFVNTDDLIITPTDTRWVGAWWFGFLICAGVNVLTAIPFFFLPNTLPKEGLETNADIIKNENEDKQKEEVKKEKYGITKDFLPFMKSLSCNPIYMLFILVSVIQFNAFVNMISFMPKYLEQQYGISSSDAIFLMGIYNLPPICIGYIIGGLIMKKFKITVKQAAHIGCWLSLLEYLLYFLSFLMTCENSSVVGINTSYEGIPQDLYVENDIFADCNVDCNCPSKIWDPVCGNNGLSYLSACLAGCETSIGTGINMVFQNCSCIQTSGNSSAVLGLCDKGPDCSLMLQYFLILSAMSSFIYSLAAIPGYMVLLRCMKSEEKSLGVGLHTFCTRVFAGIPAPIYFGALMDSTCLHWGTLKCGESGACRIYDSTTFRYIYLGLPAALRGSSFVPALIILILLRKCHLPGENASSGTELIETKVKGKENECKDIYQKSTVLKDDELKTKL
Description: TP_TRANSPORTER: inhibition of Fexofenadine uptake (Fexofenadine: 2 uM, Indinavir: 100 uM) in Xenopus laevis oocytes. It counts as functional, cell-based. On the set-up: scale not given: the % may be the effect or the level left. Conditions: oocyte.

For data set [2], the target named is T1, Solute carrier organic anion transporter family member 1A2. Nature of the data set: TP_TRANSPORTER: inhibition of Fexofenadine uptake (Fexofenadine: 2 uM, Ketoconazole: 100 uM) in Xenopus laevis oocytes. It counts as functional, cell-based. Details: scale not given: the % may be the effect or the level left. Conditions: oocyte.
For data set [3] the target is unchanged. Nature of the data set: TP_TRANSPORTER: inhibition of Fexofenadine uptake (Fexofenadine: 2 uM, Quinidine: 100 uM) in Xenopus laevis oocytes. It counts as functional, cell-based, Oocyte. Conditions: probe Fexofenadine, read-out: Activity.
The target is the same in data set [4]. Nature of the data set: TP_TRANSPORTER: inhibition of Fexofenadine uptake (Fexofenadine: 2 uM, Erythromycin: 100 uM) in Xenopus laevis oocytes. It counts as functional, cell-based. Details: scale not given: the % may be the effect or the level left. Conditions: oocyte.
Data set [5] concerns the target T2, ATP-dependent translocase ABCB1 (Mus musculus, UniProt P21447). Nature of the data set: TP_TRANSPORTER: increase in spleen concentration in mdr1a(-/-) mouse. It counts as functional, organism-based. Particulars: in vivo.
The target of data set [6] is T2, ATP-dependent translocase ABCB1. Description: TP_TRANSPORTER: increase in kidney concentration in mdr1a(-/-) mouse. Conditions: in vivo. The data set is classed as functional, organism-based.
Data set [7] has the same target. Description: TP_TRANSPORTER: increase in plasma concentration in mdr1a(-/-) mouse. It counts as functional, organism-based. Conditions: in vivo.
The target is the same in data set [8]. Description: TP_TRANSPORTER: increase in liver concentration in mdr1a(-/-) mouse. The data set is classed as functional, organism-based. Conditions: in vivo.
Data set [9] has the same target. Nature of the data set: TP_TRANSPORTER: increase in small intestine concentration in mdr1a(-/-) mouse. It counts as functional, organism-based. Conditions: in vivo.
The target is the same in data set [10]. Description: TP_TRANSPORTER: increase in heart concentration in mdr1a(-/-) mouse. The data set is classed as functional, organism-based. Conditions: in vivo.
The target of data set [11] is T1, Solute carrier organic anion transporter family member 1A2. Nature of the data set: TP_TRANSPORTER: inhibition of Fexofenadine uptake (Fexofenadine: 2 uM, Verapamil: 100 uM) in Xenopus laevis oocytes. Conditions: probe Fexofenadine. The data set is classed as functional, cell-based, Oocyte.
For data set [12] the target is unchanged. Description: TP_TRANSPORTER: inhibition of Fexofenadine uptake (Fexofenadine: 2 uM, Nelfinavir: 100 uM) in Xenopus laevis oocytes. The data set is classed as functional, cell-based. On the set-up: scale not given: the % may be the effect or the level left. Particulars: oocyte.
The target is the same in data set [13]. Nature of the data set: TP_TRANSPORTER: inhibition of Fexofenadine uptake (Fexofenadine: 2 uM, Lovastatin: 100 uM) in Xenopus laevis oocytes. It counts as functional, cell-based, Oocyte. Particulars: probe Fexofenadine.
Data set [14] shares this target. Nature of the data set: TP_TRANSPORTER: inhibition of Fexofenadine uptake (Fexofenadine: 2 uM, PSC-833: 100 uM) in Xenopus laevis oocytes. It counts as functional, cell-based, Oocyte. Conditions: probe Fexofenadine.
The target is the same in data set [15]. Nature of the data set: TP_TRANSPORTER: inhibition of Fexofenadine uptake (Fexofenadine: 2 uM, Saquinavir: 100 uM) in Xenopus laevis oocytes. The data set is classed as functional, cell-based. Details: scale not given: the % may be the effect or the level left. Conditions: oocyte.
Substrate in data set [16]: CC(C)(C(=O)O)c1ccc(C(O)CCCN2CCC(C(O)(c3ccccc3)c3ccccc3)CC2)cc1
Description: TP_TRANSPORTER: uptake in Oatp2-expressing HeLa cells. The data set is classed as functional, cell-based.

T2 sequence (P21447 whole entry): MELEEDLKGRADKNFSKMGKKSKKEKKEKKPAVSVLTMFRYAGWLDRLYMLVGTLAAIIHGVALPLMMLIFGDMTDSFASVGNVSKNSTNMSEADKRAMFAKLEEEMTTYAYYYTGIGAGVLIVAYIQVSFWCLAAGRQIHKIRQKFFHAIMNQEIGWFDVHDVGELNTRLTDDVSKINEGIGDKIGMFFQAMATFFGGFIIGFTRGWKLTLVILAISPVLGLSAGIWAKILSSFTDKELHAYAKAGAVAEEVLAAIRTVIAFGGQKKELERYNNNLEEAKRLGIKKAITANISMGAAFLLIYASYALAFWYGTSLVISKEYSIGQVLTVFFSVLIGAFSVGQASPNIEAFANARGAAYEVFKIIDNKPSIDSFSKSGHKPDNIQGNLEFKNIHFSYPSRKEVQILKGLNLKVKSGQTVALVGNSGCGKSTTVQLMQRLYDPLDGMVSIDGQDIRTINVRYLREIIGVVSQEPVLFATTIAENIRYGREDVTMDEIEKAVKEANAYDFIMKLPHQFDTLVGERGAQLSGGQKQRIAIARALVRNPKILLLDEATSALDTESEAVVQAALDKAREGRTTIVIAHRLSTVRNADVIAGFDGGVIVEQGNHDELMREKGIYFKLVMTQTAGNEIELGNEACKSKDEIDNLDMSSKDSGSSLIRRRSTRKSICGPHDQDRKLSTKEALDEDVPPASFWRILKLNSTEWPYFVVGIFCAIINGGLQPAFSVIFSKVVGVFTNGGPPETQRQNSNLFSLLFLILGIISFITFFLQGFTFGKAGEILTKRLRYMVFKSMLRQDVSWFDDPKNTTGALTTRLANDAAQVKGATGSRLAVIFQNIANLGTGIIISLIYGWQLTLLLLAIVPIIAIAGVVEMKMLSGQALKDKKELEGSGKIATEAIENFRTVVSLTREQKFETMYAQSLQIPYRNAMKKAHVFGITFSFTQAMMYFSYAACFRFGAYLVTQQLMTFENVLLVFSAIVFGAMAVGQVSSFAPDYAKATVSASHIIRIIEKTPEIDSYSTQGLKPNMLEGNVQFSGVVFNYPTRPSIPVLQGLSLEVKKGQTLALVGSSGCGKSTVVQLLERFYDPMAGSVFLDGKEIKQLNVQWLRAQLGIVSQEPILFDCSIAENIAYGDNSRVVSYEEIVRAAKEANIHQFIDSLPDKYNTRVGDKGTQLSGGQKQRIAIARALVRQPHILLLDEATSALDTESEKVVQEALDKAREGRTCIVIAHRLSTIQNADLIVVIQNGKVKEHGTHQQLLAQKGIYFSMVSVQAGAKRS

In the case of `CC(C)(C)NC(=O)[C@@H]1CN(Cc2cccnc2)CCN1C[C@@H](O)C[C@@H](Cc1ccccc1)C(=O)N[C@H]1c2ccccc2C[C@H]1O.O`, in data set [1], the Activity stood at 70%.

Consider `CC(=O)N1CCN(c2ccc(OCC3COC(Cn4ccnc4)(c4ccc(Cl)cc4Cl)O3)cc2)CC1` (stereo unspecified) [KETOCONAZOLE], for which, in data set [2], the Activity stood at 107%. As for `C=C[C@H]1C[N@@]2CC[C@H]1C[C@@H]2[C@@H](O)c1ccnc2ccc(OC)cc12` [QUINIDINE], in data set [3], the inhibition at 100 µM amounted to 91%. On to `CC[C@H]1OC(=O)[C@H](C)[C@@H](O[C@H]2C[C@@](C)(OC)[C@@H](O)[C@H](C)O2)[C@H](C)[C@@H](O[C@@H]2O[C@H](C)C[C@H](N(C)C)[C@H]2O)[C@](C)(O)C[C@@H](C)C(=O)[C@H](C)[C@@H](O)[C@]1(C)O` [ERYTHROMYCIN], for which, in data set [4], the Activity stood at 66%. As for `CC(C)(C(=O)O)c1ccc(C(O)CCCN2CCC(C(O)(c3ccccc3)c3ccccc3)CC2)cc1` (stereo unspecified) [FEXOFENADINE], the Activity entry in data set [5], in data set [6], in data set [7], in data set [8], in [9] and in data set [10] was “substrate [+]” throughout. In data set [11], `COc1ccc(CCN(C)CCCC(C#N)(c2ccc(OC)c(OC)c2)C(C)C)cc1OC` (stereo unspecified) showed an inhibition at 100 µM of 100%. With `Cc1c(O)cccc1C(=O)N[C@@H](CSc1ccccc1)[C@H](O)CN1C[C@H]2CCCC[C@H]2C[C@H]1C(=O)NC(C)(C)C`, in data set [12], the Activity amounted to 81%. Turning to `CC[C@H](C)C(=O)O[C@H]1C[C@@H](C)C=C2C=C[C@H](C)[C@H](CC[C@@H]3C[C@@H](O)CC(=O)O3)[C@H]21` [LOVASTATIN], the inhibition at 100 µM in data set [13] was 95%. In [14], `C/C=C/C[C@@H](C)C(=O)[C@H]1C(=O)N[C@@H](C(C)C)C(=O)N(C)CC(=O)N(C)[C@@H](CC(C)C)C(=O)N[C@@H](C(C)C)C(=O)N(C)[C@@H](CC(C)C)C(=O)N[C@@H](C)C(=O)N[C@H](C)C(=O)N(C)[C@@H](CC(C)C)C(=O)N(C)[C@@H](CC(C)C)C(=O)N(C)[C@@H](C(C)C)C(=O)N1C` [VALSPODAR] displayed an inhibition at 100 µM of 85%. The molecule `CC(C)(C)NC(=O)[C@@H]1C[C@@H]2CCCC[C@@H]2CN1C[C@@H](O)[C@H](Cc1ccccc1)NC(=O)[C@H](CC(N)=O)NC(=O)c1ccc2ccccc2n1` came in with an Activity in data set [15] of 105%.

B1: Solute carrier organic anion transporter family member 1A4 (Rattus norvegicus) (protein)
chain: MGKSEKRVATHGVRCFAKIKMFLLALTCAYVSKSLSGTYMNSMLTQIERQFGIPTSIVGLINGSFEIGNLLLIIFVSYFGTKLHRPIMIGVGCAVMGLGCFLISLPHFLMGQYEYETILPTSNVSSNSFFCVENRSQTLNPTQDPSECVKEMKSLMWIYVLVGNIIRGIGETPIMPLGISYIEDFAKSENSPLYIGILETGMTIGPLIGLLLASSCANIYVDIESVNTDDLTITPTDTRWVGAWWIGFLVCAGVNILTSFPFFFFPKTLPKEGLQENVDGTENAKEKKHRKKAKEEKRGITKDFFVFMKSLSCNPIYMLFILISVLQFNAFINSFTFMPKYLEQQYGKSTAEVVFLMGLYMLPPICLGYLIGGLIMKKFKVTVKKAAHLAFWLCLSEYLLSFLSYVMTCDNFPVAGLTTSYEGVQHQLYVENKVLADCNTRCNCSTNTWDPVCGDNGLAYMSACLAGCEKSVGTGTNMVFQNCSCIQSSGNSSAVLGLCNKGPDCANKLQYFLIIAIFGCFIYSLAGIPGYMVLLRCIKSEEKSLGVGLHAFCIRILAGIPAPIYFGALIDRTCLHWGTLKCGEPGACRMYDINSFRRLYLGLPAALRGASFVPAFFILRLTRTFQFPGDIESSKTDHAEMKLTLKESECTEVLRSKVTED
Regarding B1, the Km in [16] was 6 µM.

Values taken from ChEMBL document CHEMBL2074500 (Drug Metab Dispos, 1999).
